Experimental data taken from patent publication US11299715B2, “Use of iNOS inhibitors to increase viral yield in culture” (priority 2013, dated 2022).

Key:
[1] = tested on: NOS3 = eNOS; assay: Affymetrix Gen Array, NOS3 expression in 293 cells; type: cell-based, human; conditions: probe 205581_s_at
Experimental: (§1) Confluent 293 cells (2.4×10^6 cells in a 75 cm^2 flask) were cultured in DMEM+10% FCS for approximately 20 hrs and were then infected with one plaque forming unit per cell (PFU/cell) of HSV-1 MacIntyre Strain for 90 min. ATA at a concentration 20 μM (final) was added 90 min post-infection. The infected cells were harvested at 24 h after infection. Total RNA of sufficient quality and quantity was isolated from suspension using RNeasy Plus Mini Kit (QIAGEN, Valencia, Calif.) according to the manufacturer's instructions. Whole genome expression profiling was performed on Affymetrix Human U133 Plus 2.0 Array by the Asuragen, Inc. 3 μg total RNA was provided as input material.
(§2) Overall, RNA quality assessed on the bioanalyzer had RIN values of >9. Array hybridization and scaling factors were within passing quality control range. After scanning, raw expression CEL files were processed with Affymetrix Expression Console vs.1.1.2 (affymetrix.com). Each CEL file was processed with Robust Multichip Analysis (RMA) and a summarized table was exported as a text file. All downstream genomics and statistical analyses were done with JMP Genomics (version 5) (jmp.com/software/genomics). First, a filtering step was applied to filter-out low expression, specifically, those values below 6 in log^2 mode in at least 2 out of 8 samples. […]

[2] = tested on: iNOS; assay: Western blot of iNOS in HSV-1 d27.1-infected V27 cell lysates; type: cell-based, African green monkey; conditions: 30 μM ATA; d27.1 MOI 1; V27 lysates 24 h.p.i.; with or without 10% FBS
Experimental: V27 cells in Dulbecco's Modified Eagles Medium (DMEM) (Hyclone, Waltham, Mass.) were infected with the HSV-1 d27.1 vector at an MOI of 1 and treated with 30 μM ATA (Sigma, St. Louis, Mo.), with or without 10% fetal bovine serum (FBS). Control experiments without ATA were also performed. V27 cell lysates were obtained 24 hours post infection (h.p.i.) and Western blots were run on the lysates and iNOS protein was detected by using purified rabbit anti-iNOS/NOS Type II pAb (BD Biosciences, Cat#610332).

[3] = tested on: rAAV-GFP vector; assay: rAAV production by rHSV-rep2/cap2 and rHSV-EGFP co-infection of 293 cells; type: cell-based, AAV
Experimental: 293 cells (2.5×10^6) were simultaneously co-infected with both rHSV-rep2/cap2 and rHSV-EGFP vectors as described by Kang et al., Gene Ther (2009) 16:229-239. At 2-4 hr post infection, infectious medium was exchanged with DMEM+10% FBS equivalent to double the preinfection culture volume. At the time of harvest, the cell pellet was frozen at −80° C. DRP titers were quantified by real-time polymerase chain reaction (qPCR) in a96-well block thermocycler (Applied Biosystems; 7500 Real Time PCR system). Crude samples were subjected to three cycles of freezing and thawing, then incubated in the presence of Benzonase (250 U/ml), 2 mM MgCl2, 1% final concentration protein grade Tween 80 (Calbiochem) and incubated at 37° C. for 60 min, followed by 0.25% Trypsin (Gibco) digestion at 50° C. for 60 min. Finally, treatment with DNase I (50 U/ml; Promega) at 37° C. for 30 min, and then denatured at 95° C. for 20 min. Linearized plasmidpDC67/+SV40 was used to generate standard curves. The primer-probe set was specific for the simian virus 40 (SV40) poly(A) sequence: rAAV-F: 5′-[…]-3′ (SEQ ID NO:4); rAAV-R: 5′-[…]-3′ (SEQ ID NO:5); rAAV-Probe: 5′ 6-FAM-[…]-TAMRA-3′ (SEQ ID NO:6).
In order to determine whether the presence of ATA during HSV production impacted the yield of rAAV virions produced using HSV vectors, the following experiment was performed showing rAAV titers affected by ATA residue present from rHSV-1 stocks produced in 293 cells (FIG. 5A). […] One-way ANOVA; Tukey's-test:*p<0.05; 20 μM ATA vs. No ATA; n=4 independent experiments.
This effect was not observed when the ATA concentrations were higher then 20 μM (FIG. 5B).

[4] = tested on: NOS2 = iNOS; assay: Affymetrix Gen Array, NOS2 expression in 293 cells; type: cell-based, human; conditions: AF049656
Experimental: as §1, §2

O=C(O)C1=CC(=C(c2ccc(O)c(C(=O)O)c2)c2ccc(O)c(C(=O)O)c2)C=CC1=O [ATA, 5-((3-carboxy-4-hydroxyphenyl)(3-carboxy-4-oxo-2,5-cyclohexadien-1-ylidene)methyl)-2-hydroxybenzoic acid]
NOS3 expression, ATA ([1]; ATA alone): 1.24
NOS3 expression, HSV + ATA ([1]; HSV + ATA, HSV alone 2.45): 1.94
iNOS expression (Western blot) [2]: inhibits
rAAV titer, ATA spiked into 293 cell media during co-infection ([3]; 10 μM ATA, 2 hrs co-infection step): increase
rAAV titers using HSV stock prepared with 20 μM ATA ([3]; 20 μM ATA added during infection): slightly increased
rAAV titer increase at higher spiked ATA concentrations ([3]; ATA higher than 20 μM spiked into 293 cell media): not observed
influence of ATA in rHSV-1 stocks on rAAV yield ([3]; ATA present in rHSV-1 stocks): did not negatively influence
increase of rAAV DRP/ml titer versus No ATA control ([3]; rHSV-rep2/cap2 stock prepared with 20 μM ATA (Step 1), about 3 μM ATA during rAAV production, n=4): 1.3 times
rAAV titer with rHSV-rep2/cap2 stock prepared with 12 μM ATA ([3]; stock prepared with 12 μM ATA, n=4): No significant rAAV titer increase
NOS2 expression, ATA ([4]; ATA alone): −1.03
NOS2 expression, HSV + ATA ([4]; HSV + ATA, HSV alone 2.05): 1.72
